Experimental findings from patent publication US4894453A, “2-substituted alkoxy-3-substituted-pyrazines” (Toyo Jozo Kabushiki Kaisha, priority 1986, dated 1990) are described below.

Each structure is given as a SMILES string.

The test system of the first experiment is lipoperoxide generation in rat cerebrum. Nature of the experiment: Antioxidant activity (inhibition of lipoperoxide generation, method of Stocks et al.). As to conditions: 100 μM; rat cerebrum supernatant, 37° C., 15 min, thiobarbituric acid, 532 nm; hydrochloride salt. The experiment is classed as biochemical. Here is the method:
(§1) The pharmacological activity of the present compounds [1] is illustrated below. All the compounds [1] used in the pharmacological tests were tested in the form of the hydrochloride salt thereof.
Antioxidant activity is determined according to the method of Stocks et al. [Clin. Sci. Mol. Med., 47: 215 (1974)]. Rat cerebrum is added to ice-cooled 40 mM phosphate saline buffer solution (PBS) (pH 7.4, 4 ml buffer per 1 g cerebrum), homogenized and centrifuged (1000×g, 4° C., 10 min.) to obtain a supernatant solution. The supernatant solution is diluted fivefold with the above ice-cooled PBS solution, and to a 0.9 ml aliquot thereof is added a sample containing a compound [1] (0.1 ml, final concentration 100 μM) dissolved in ethanol. The resultant mixture is incubated at 37° C. for 15 minutes, 35% perchloric acid (0.2 ml) is added, and the mixture is ice-cooled to stop the reaction and centrifuged (1300×g, 4° C., 10 min.). 0.5 ml thiobarbituric acid (5 g/lit. of 50% acetic acid) is added to the supernatant solution (1 ml), so as to measure its absorbancy at 532 nm. The amount of lipoperoxide thus generated is expressed as an amount of malondialdehyde.
As to `CCCCCCCCCCCCCCc1nc2c(nc1OCCN1CCN(Cc3ccc(F)cc3)CC1)CCCC2` [Compound 602], the “inhibition ratio, lipoperoxide generation (antioxidant activity)” value (shortened to “inhibition ratio”) worked out at 64%.

For `CCCCCCCCCc1nc2c(nc1OCCN1CCCN(Cc3ccc(Cl)cc3)CC1)CCCC2` [Compound 583], the “inhibition ratio” value worked out at 82%.

For `CCCCCCCCc1nc2c(nc1OCCN1CCN(c3ccccc3OC)CC1)CCCC2` [Compound 578], the “inhibition ratio” value is 88%.

Turning to `CCCCCCCCCCCCc1nc2c(nc1OCCN1CCN(Cc3ccc(OC)cc3)CC1)CCCC2` [Compound 597], the “inhibition ratio” value is reported as 76%.

On to `CCCCCCCCCCCCCCc1nc2c(nc1OCCN1CCCN(Cc3ccc(Cl)cc3)CC1)CCCC2` [Compound 603], for which the “inhibition ratio” value amounted to 76%.

As to `CCCCCCCCCCc1nc2c(nc1OCCN1CCN(Cc3ccc(Cl)cc3)CC1)CCCC2` [Compound 590], the “inhibition ratio” value is 74%.

On to `CCCCCCCCCCCCCCc1nc2c(nc1OCCN1CCN(Cc3ccccc3)CC1)CCCC2` [Compound 601], for which the “inhibition ratio” value is recorded as 67%.

For `CCCCCCCCCCCCc1nc2c(nc1OCCN1CCOCC1)CCCC2` [Compound 594], the “inhibition ratio” value is 58%.

As to `CCCCCCCCc1nc2c(nc1OCCN1CCN(Cc3ccccc3)CC1)CCCC2` [Compound 574], the “inhibition ratio” value came out at 71%.

As for `O=C(COc1nc2c(nc1Cc1ccccc1)CCCC2)NCCN1CCN(c2ccc(Cl)cc2)CC1` [Compound 371], the “inhibition ratio” value is 49%.

As for `CCCCCCCCCCCCCCCCc1nc2c(nc1OCCN1CCN(CCCC)CC1)CCCC2` [Compound 607], the “inhibition ratio” value stood at 52%.

As for `CCCCCCc1nc2c(nc1OCCN1CCCN(Cc3ccc(F)cc3)CC1)CCCC2` [Compound 569], the “inhibition ratio” value is listed as 81%.

As for `CCCCCCCCCCc1nc2c(nc1OCCN1CCN(C(c3ccccc3)c3ccccc3)CC1)CCCC2` [Compound 591], the “inhibition ratio” value was found to be 59%.

As for `CCCCCCCCCCCCCCCCc1nc2c(nc1OCCN1CCN(Cc3ccccc3)CC1)CCCC2` [Compound 608], the “inhibition ratio” value was 55%.

As for `CCc1nc(Cc2ccccc2)c(OCC(=O)NCCN2CCN(Cc3ccc(Cl)cc3)CC2)nc1CC` [Compound 379], the “inhibition ratio” value was determined as 50%.

Turning to `CCCCCCCCCCCCc1nc2c(nc1OCCN1CCN(Cc3ccccc3)CC1)CCCC2` [Compound 596], the “inhibition ratio” value is 73%.

Turning to `O=C(COc1nc2c(nc1Cc1ccccc1)CCCC2)NCCN1CCN(c2ccccc2)CC1` [Compound 373], the “inhibition ratio” value is 49%.

Take `Cc1nc(Cc2ccccc2)c(OCCN2CCCN(Cc3ccc(Cl)cc3)CC2)nc1C` [Compound 516]: the “inhibition ratio” value was determined as 75%.

On to `CCCCCCCCCCc1nc2c(nc1OCCN1CCCCC1)CCCC2` [Compound 586], for which the “inhibition ratio” value is given as 68%.

In the case of `CCCCCCCCc1nc2c(nc1OCCN1CCN(Cc3ccc(Cl)cc3)CC1)CCCC2` [Compound 575], the “inhibition ratio” value worked out at 79%.

In the case of `CCCCCCCCc1nc2c(nc1OCCN1CCCN(Cc3ccc(F)cc3)CC1)CCCC2` [Compound 576], the “inhibition ratio” value is 85%.

Regarding `CCc1nc(C)c(C)nc1OC(C(=O)NCCN1CCN(Cc2ccc(Cl)cc2Cl)CC1)c1ccccc1` (centres unmarked) [Compound 345], the “inhibition ratio” value was 54%.

`CCCCCCCCCCc1nc2c(nc1OCCN1CCN(c3ccc(OC)cc3)CC1)CCCC2` [Compound 593]: the “inhibition ratio” value was found to be 73%.

Regarding `CCCCCCCCc1nc2c(nc1OCCN1CCN(c3ccccc3)CC1)CCCC2` [Compound 577], the “inhibition ratio” value is listed as 71%.

As to `CCCCCCCCCCc1nc2c(nc1OCCN1CCCN(Cc3ccc(F)cc3)CC1)CCCC2` [Compound 592], the “inhibition ratio” value was determined as 85%.

Consider `CCc1nc(Cc2ccccc2)c(OCC(=O)NCCN2CCCN(Cc3ccc(Cl)cc3)CC2)nc1CC` [Compound 382], for which the “inhibition ratio” value is given as 83%.

As for `O=C(COc1nc2c(nc1Cc1ccccc1)CCCC2)NCCN1CCCN(Cc2ccc(F)cc2)CC1` [Compound 372], the “inhibition ratio” value turned out to be 64%.

With `CCCCCCc1nc2c(nc1OCCN1CCN(Cc3ccc(Cl)cc3)CC1)CCCC2` [Compound 568], the “inhibition ratio” value was 61%.

For `CCCCCCCCCCc1nc2c(nc1OCCN1CCN(Cc3ccccc3)CC1)CCCC2` [Compound 589], the “inhibition ratio” value was 74%.

Regarding `CCCCCCCCCCCCc1nc2c(nc1OCCN1CCCN(Cc3ccc(F)cc3)CC1)CCCC2` [Compound 598], the “inhibition ratio” value was 88%.

On to `CCCCCCCCCCCCc1nc2c(nc1OCCN1CCN(c3ccccc3OC)CC1)CCCC2` [Compound 599], for which the “inhibition ratio” value was 70%.

Consider `CCCCc1nc2c(nc1OCCN1CCCN(Cc3ccc(Cl)cc3)CC1)CCCC2` [Compound 520], for which the “inhibition ratio” value was 83%.

On to `CCCCCCCCCc1nc2c(nc1OCCN1CCN(Cc3ccccc3)CC1)CCCC2` [Compound 581], for which the “inhibition ratio” value is 71%.

For another experiment, the system named is PAF-induced aggregation (rabbit platelet plasma). Nature of the experiment: Platelet aggregation inhibitory action on PAF-induced aggregation. Type of experiment: cell-based. As to conditions: Oryctolagus cuniculus, 0.05 h, 100 μM, PAF 10-50 μg/ml, 37° C., 3 min incubation, hydrochloride salt, read-out: inhibition ratio, PAF-induced platelet aggregation. Here is the method: as §1
1. Platelet aggregation inhibition:
Sample solution containing a compound [1] (final concentration 500 or 100 μM) is added to rabbit platelet plasma to which was added 10% by volume of a 3.8% sodium citrate solution, and the mixture is incubated at 37° C. for 3 minutes. A platelet activation factor (PAF, final concentration 10-50 μg/ml) or collagen (final concentration 2.5 μg/ml) is added thereto as an aggregating agent, and platelet aggregation activity is measured with an aggregometer. The results of assays for PAF-induced aggregation are shown in Table 3, and those for collagen-induced aggregation are shown in Table 4, which tables show the strong platelet aggregation inhibitory activity of the compounds [1] of the present invention.
`CCCCCc1nc2c(nc1OCCN1CCN(Cc3ccccc3)CC1)CCCC2` [Compound 561]: the inhibition at 100 µM came out at 56%.

For `Cc1nc(C)c(OCCN2CCCN(Cc3ccc(Cl)cc3)CC2)nc1C` [Compound 541], the inhibition at 100 µM was 44%.

As for `CCCCCCc1nc2c(nc1OCCN1CCN(CCCC)CC1)CCCC2` [Compound 565], the inhibition at 100 µM amounted to 94%.

As for `CCc1nc(OCCN2CCN(Cc3ccccc3)CC2)c(C(C)C)nc1CC` [Compound 552], the inhibition at 100 µM worked out at 78%.

With `CCCCCc1nc2c(nc1OCCN1CCN(CCCC)CC1)CCCC2` [Compound 560], the inhibition at 100 µM amounted to 97%.

On to `CCCCN1CCN(CCOc2nc(CC)c(CC)nc2C(C)C)CC1` [Compound 551], for which the inhibition at 100 µM amounted to 97%.

For the compound `CCc1nc(OCCN2CCCN(Cc3ccc(OC)cc3)CC2)c(C(C)C)nc1CC` [Compound 553], the inhibition at 100 µM turned out to be 82%.

As to `CCc1nc(C)c(C)nc1OCCN1CCCN(Cc2ccc(Cl)cc2)CC1` [Compound 504], the inhibition at 100 µM amounted to 60%.

With `CCc1nc(C)c(C)nc1OC(C(=O)NCCN1CCOCC1)c1ccccc1` (centres unmarked) [Compound 341], the inhibition at 100 µM came out at 42%.

With `CCc1nc(C)c(C)nc1OC(C(=O)NCCN1CCN(Cc2ccccc2)CC1)c1ccccc1` (centres unmarked) [Compound 342], the inhibition at 100 µM is 43%.

In the case of `CCCCCCc1nc2c(nc1OCCN1CCN(Cc3ccccc3)CC1)CCCC2` [Compound 567], the inhibition at 100 µM came to 58%.

For `CCc1nc(C)c(C)nc1OCCN1CCCN(Cc2ccc(F)cc2)CC1` [Compound 503], the inhibition at 100 µM amounted to 42%.

With `CCCCCCCc1nc2c(nc1OCCN1CCN(CCCC)CC1)CCCC2` [Compound 571], the inhibition at 100 µM was found to be 88%.

Staying with this experiment, now noted: Oryctolagus cuniculus, 0.05 h, 500 μM, PAF 10-50 μg/ml, 37° C., 3 min incubation, hydrochloride salt, read-out: inhibition ratio, PAF-induced platelet aggregation.
For the compound `Cc1nc(C)c(OCC(=O)N2CCN(C(=O)COc3nc(C)c(C)nc3C)CC2)nc1C` [Compound 070], the inhibition at 500 µM came out at 48%.
